As a reminder, the Ki is a dissociation constant, usually derived from enzyme kinetics or from competition with a known ligand.

For this experiment, the target named is recombinant Mcl-1 (residues 172-327) (Homo sapiens (Human), UniProt Q07820). Nature of the experiment: Bak peptide binding assay, fluorescence polarization anisotropy competition (FITC-Bak), Mcl-1.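 Note: displacement of labeled Bak peptide read by fluorescence anisotropy, 10-point threefold dilutions from 20 µM top dose in 5% DMSO, 90 min incubation at room temperature.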 The note with it: Table 3, binned ranges; FITC-Bak peptide 10 nM, Mcl-1 14 nM; read-out: Ki for inhibition of Mcl-1.
Chain of recombinant Mcl-1 (residues 172-327) (Q07820 172-327): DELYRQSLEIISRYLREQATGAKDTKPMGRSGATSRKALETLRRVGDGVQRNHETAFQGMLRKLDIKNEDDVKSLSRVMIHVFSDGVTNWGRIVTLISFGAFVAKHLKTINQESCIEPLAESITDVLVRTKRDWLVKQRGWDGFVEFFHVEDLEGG

Method: Bak Peptide Binding Assay
Compound affinity was measured using a fluorescence polarization anisotropy competition assay. Anisotropy measurements were carried out in 384-well, black, flat-bottom plates (Greiner Bio-one, Monroe, N.C., USA). […] 10 nM FITC-Bak peptide and 14 nM recombinant Mcl-1 (residues 172-327) were added to assay buffer (3 mM dithiothreitol, 50 mM NaCl, 20 mM Tris, pH 7.5).
Compounds are diluted in DMSO in a 10-point, 3-fold serial dilution scheme. 2.5 uL compound is added to 47.5 uL of assay buffer containing FITC-Bak and protein, for a final DMSO concentration of 5% and a top concentration of 20 uM. […] The plate was mixed and incubated for 90 minutes at room temperature. Anisotropy is measured at excitation wavelength 480 nm and emission wavelength 535 nm using an EnVision Multi-label plate reader (PerkinElmer, Wellesley, Mass., USA).

As for `CCC(C(=O)O)n1cc(CCCOc2cc(C)c(Cl)c(C)c2)c2ccccc21` (racemic) [Example 52, (±)-2-(3-(3-(4-chloro-3,5-dimethylphenoxy)propyl)-1H-indol-1-yl)butanoic acid], the inhibition constant Ki fell in the range of 0.501 to 0.999 µM. In the case of `Cc1cc(OCCCc2cn(C(C(=O)O)c3ccccc3)c3ccccc23)cc(C)c1Cl` (racemic) [Example 53, (±)-2-(3-(3-(4-chloro-3,5-dimethylphenoxy)propyl)-1H-indol-1-yl)-2-phenylacetic acid], the inhibition constant (Ki) is 0.501 to 0.999 µM. The figure for `Cc1cc(OCCCc2cn(C(C)CC(=O)O)c3ccccc23)cc(C)c1Cl` (racemic) [Example 55, (±)-3-(3-(3-(4-chloro-3,5-dimethylphenoxy)propyl)-1H-indol-1-yl)butanoic acid] is 0.501 to 0.999 µM; for `Cc1cc(OCCCc2cn(C(CC(=O)O)c3ccccc3)c3ccccc23)cc(C)c1Cl` (racemic) [Example 56, (±)-3-(3-(3-(4-chloro-3,5-dimethylphenoxy)propyl)-1H-indol-1-yl)-3-phenylpropanoic acid] it is 0.501 to 0.999 µM; for `Cc1cc(OCCCc2cn(C(C)C(=O)NS(C)(=O)=O)c3ccccc23)cc(C)c1Cl` (racemic) [Example 59, (±)-2-(3-(3-(4-chloro-3,5-dimethylphenoxy)propyl)-1H-indol-1-yl)-N-(methylsulfonyl)propanamide] it is 0.501 to 0.999 µM.

With `CCC(C(=O)NS(C)(=O)=O)n1cc(CCCOc2cc(C)c(Cl)c(C)c2)c2ccccc21` (racemic) [Example 60, (±)-2-(3-(3-(4-chloro-3,5-dimethylphenoxy)propyl)-1H-indol-1-yl)-N-(methylsulfonyl)butanamide], the Ki lay within 0.501 to 0.999 µM. For `O=C(O)Cc1cn(CCCOc2cccc3ccccc23)c2ccccc12` [Example 1, 2-(1-(3-(naphthalen-1-yloxy)propyl)-1H-indol-3-yl)acetic acid] the value was 1 to 9.99 µM; for `O=C(O)Cc1cn(CCCOc2ccc3ccccc3c2)c2ccccc12` [Example 2, 2-(1-(3-(naphthalen-2-yloxy)propyl)-1H-indol-3-yl)acetic acid], 10 to 50 µM. For `Cc1cc(OCCCn2cc(CC(=O)NS(C)(=O)=O)c3ccccc32)cc(C)c1Cl` [Example 4, 2-(1-(3-(4-chloro-3,5-dimethylphenoxy)propyl)-1H-indol-3-yl)-N-(methylsulfonyl)acetamide] the value was 1 to 9.99 µM. The figure for `Cc1cc(OCCCc2cn(CC(=O)O)c3ccccc23)cc(C)c1Cl` [Example 5, 2-(3-(3-(4-chloro-3,5-dimethylphenoxy)propyl)-1H-indol-1-yl)acetic acid] is 0.501 to 0.999 µM; for `O=C(O)Cn1cc(CCCOc2cccc3ccccc23)c2ccccc21` [Example 6, 2-(3-(3-(naphthalen-1-yloxy)propyl)-1H-indol-1-yl)acetic acid] it is 1 to 9.99 µM; for `O=C(O)Cn1cc(CCCOc2cccc3ccccc23)c2ccc(Cl)cc21` [Example 8, 2-(6-chloro-3-(3-(naphthalen-1-yloxy)propyl)-1H-indol-1-yl)acetic acid] it is 1 to 9.99 µM. Turning to `Cc1cc(OCCCc2cn(CC(=O)O)c3cccc(Cl)c23)cc(C)c1Cl` [Example 9, 2-(4-chloro-3-(3-(4-chloro-3,5-dimethylphenoxy)propyl)-1H-indol-1-yl)acetic acid], the inhibition constant Ki was 0.501 to 0.999 µM.

Take `O=C(O)Cn1cc(CCCOc2cccc3ccccc23)c2c(Cl)cccc21` [Example 10, 2-(4-chloro-3-(3-(naphthalen-1-yloxy)propyl)-1H-indol-1-yl)acetic acid]: the inhibition constant (Ki) was 1 to 9.99 µM. The figure for `O=C(O)CCn1cc(CCCOc2cccc3ccccc23)c2ccccc21` [Example 11, 3-(3-(3-(naphthalen-1-yloxy)propyl)-1H-indol-1-yl)propanoic acid] is 1 to 9.99 µM.

Regarding `Cc1cc(OCCCc2cn(CCC(=O)O)c3cc(Cl)ccc23)cc(C)c1Cl` [Example 13, 3-(6-chloro-3-(3-(4-chloro-3,5-dimethylphenoxy)propyl)-1H-indol-1-yl)propanoic acid], the Ki fell in the range of 0.101 to 0.299 µM. For `O=C(O)CCn1cc(CCCOc2cccc3ccccc23)c2c(Cl)cccc21` [Example 16, 3-(4-chloro-3-(3-(naphthalen-1-yloxy)propyl)-1H-indol-1-yl)propanoic acid] the value was 1 to 9.99 µM. Consider `Cc1cc(OCC(C)Cc2cn(CCC(=O)O)c3ccccc23)cc(C)c1Cl` (stereo not shown) [Example 17, 3-(3-(3-(4-chloro-3,5-dimethylphenoxy)-2-methylpropyl)-1H-indol-1-yl)propanoic acid], for which the inhibitory constant (Ki) lay within 1 to 9.99 µM. For `Cc1cc(OCCCc2cn(CCC(=O)NS(C)(=O)=O)c3ccccc23)cc(C)c1Cl` [Example 18, 3-(3-(3-(4-chloro-3,5-dimethylphenoxy)propyl)-1H-indol-1-yl)-N-(methylsulfonyl)propanamide] the value was 1 to 9.99 µM. For `CS(=O)(=O)NC(=O)CCn1cc(CCCOc2cccc3ccccc23)c2ccccc21` [Example 19, 3-(3-(3-(naphthalen-1-yloxy)propyl)-1H-indol-1-yl)-N-(methylsulfonyl)propanamide] the value was 1 to 9.99 µM; for `CS(=O)(=O)NC(=O)CCn1cc(CCCOc2cccc3ccccc23)c2ccc(Cl)cc21` [Example 21, 3-(6-chloro-3-(3-(naphthalen-1-yloxy)propyl)-1H-indol-1-yl)-N-(methylsulfonyl)propanamide], 0.501 to 0.999 µM. For `CS(=O)(=O)NC(=O)CCn1cc(CCCOc2cccc3ccccc23)c2c(Cl)cccc21` [Example 23, 3-(4-chloro-3-(3-(naphthalen-1-yloxy)propyl)-1H-indol-1-yl)-N-(methylsulfonyl)propanamide] the value was 1 to 9.99 µM. As to `CS(=O)(=O)NC(=O)Cn1cc(CCCOc2cccc3ccccc23)c2ccccc21` [Example 24, N-(methylsulfonyl)-2-(3-(3-(naphthalen-1-yloxy)propyl)-1H-indol-1-yl)acetamide], the Ki is 1 to 9.99 µM. For `CS(=O)(=O)NC(=O)Cn1cc(CCCOc2cccc3ccccc23)c2c(Cl)cccc21` [Example 28, 2-(4-chloro-3-(3-(naphthalen-1-yloxy)propyl)-1H-indol-1-yl)-N-(methylsulfonyl)acetamide] the value was 1 to 9.99 µM. As for `Cc1cc(OCCCc2cn(CCC(=O)O)c3c(Br)cccc23)cc(C)c1Cl` [Example 29, 3-(7-bromo-3-(3-(4-chloro-3,5-dimethylphenoxy)propyl)-1H-indol-1-yl)propanoic acid], the Ki was 0.301 to 0.5 µM. With `Cc1cc(OCCCc2cn(CCC(=O)O)c3c(-c4c(COc5ccccc5)nn(C)c4C)cccc23)cc(C)c1Cl` [Example 30, 3-(3-(3-(4-chloro-3,5-dimethylphenoxy)propyl)-7-(1,5-dimethyl-3-(phenoxymethyl)-1H-pyrazol-4-yl)-1H-indol-1-yl)propanoic acid], the Ki fell in the range of 0.101 to 0.299 µM. For `Cc1cc(OCCCc2cn(CCC(=O)O)c3c(-c4ccccc4)cccc23)cc(C)c1Cl` [Example 31, 3-(3-(3-(4-chloro-3,5-dimethylphenoxy)propyl)-7-phenyl-1H-indol-1-yl)propanoic acid] the value was 0.301 to 0.5 µM; for `Cc1cc(OCCCc2cn(CCC(=O)O)c3c(-c4cccnc4)cccc23)cc(C)c1Cl` [Example 33, 3-(3-(3-(4-chloro-3,5-dimethylphenoxy)propyl)-7-(pyridin-3-yl)-1H-indol-1-yl)propanoic acid], 0.501 to 0.999 µM.

The values above are taken from patent publication US10954193B2 (Vanderbilt University, priority 2013, dated 2021).
